In patent US9556165B2 (priority 2012, dated 2017):
In brackets after ≈: the same amount, converted by molar mass. Read-outs that look alike come from different tables or passages of the source.

How the values were obtained:
Type in all cases: cell-based
[1] = system: P. aeruginosa 2297 (AmpC wt); experiment: MIC determination, broth microdilution (CLSI); conditions: Pseudomonas aeruginosa, strain 7
A. baumannii ATCC15308 = experiment: MIC determination, broth microdilution (CLSI); conditions: Acinetobacter baumannii, ATCC15308, strain 9
H. influenzae ATCC 49247 = experiment: MIC determination, broth microdilution (CLSI); conditions: Haemophilus influenzae, ATCC49247, strain 12; broth microdilution; read-out: MIC strain 12 (H. influenzae ATCC 49247)
E. coli J62 = experiment: MIC determination, broth microdilution (CLSI); conditions: Escherichia coli, J62, strain 17; broth microdilution; read-out: MIC strain 17 (E. coli J62)
M. morganii 126/3048 = experiment: MIC determination, broth microdilution (CLSI); conditions: Morganella morganii, 126/3048, strain 5
E. cloacae 34654 = experiment: MIC determination, broth microdilution (CLSI); conditions: Enterobacter cloacae, 34654, strain 3
Bacteria = experiment: MIC determination in combination with β-lactamase inhibitors (constant 4 μg/mL)
K. pneumoniae 60 = experiment: MIC determination, broth microdilution (CLSI); conditions: Klebsiella pneumoniae, 60, strain 2
B. fragilis 6688 = experiment: MIC determination, broth microdilution (CLSI); conditions: Bacteroides fragilis, 6688, strain 15; broth microdilution; read-out: MIC strain 15 (B. fragilis 6688)
E. coli J62-TEM-3 = experiment: MIC determination, broth microdilution (CLSI); conditions: Escherichia coli, J62TEM3, read-out: MIC strain 18 (E. coli J62-TEM-3), strain 18; broth microdilution
E. coli ATCC25922 = experiment: MIC determination, broth microdilution (CLSI); conditions: Escherichia coli, ATCC25922, strain 1
S. maltophilia ICB7569 = experiment: MIC determination, broth microdilution (CLSI); conditions: Stenotrophomonas maltophilia, ICB7569, strain 10
C. perfringens DSM756 = experiment: microbe, parasite or virus in culture; conditions: Clostridium perfringens, DSM756, read-out: MIC strain 16 (C. perfringens DSM756), strain 16; broth microdilution
C. freundii K21/3034 = experiment: MIC determination, broth microdilution (CLSI); conditions: Citrobacter freundii, K21/3034, strain 4
P. aeruginosa PAO1 = experiment: MIC determination, broth microdilution (CLSI); conditions: Pseudomonas aeruginosa, PAO1, strain 6
S. pneumoniae 113 = experiment: MIC determination, broth microdilution (CLSI); conditions: Streptococcus pneumoniae, 113, strain 13; broth microdilution; read-out: MIC strain 13 (S. pneumoniae 113)
S. aureus 133 = experiment: MIC determination, broth microdilution (CLSI)
[2] = system: P. aeruginosa 2297-con (AmpC derepressed); experiment: MIC determination, broth microdilution (CLSI); conditions: Pseudomonas aeruginosa, read-out: strain 8 MIC, strain 8
[3] = Staphylococcus aureus, 133, strain 11, read-out: strain 11 MIC
[4] = Staphylococcus aureus, 133, strain 14, broth microdilution, read-out: MIC strain 14 (S. aureus 133)

Row | SMILES | MIC [1] [µg/mL] | MIC (A. baumannii ATCC15308) [µg/mL] | MIC (H. influenzae ATCC 49247) [µg/mL] | MIC (E. coli J62) [µg/mL] | MIC (M. morganii 126/3048) [µg/mL] | MIC (E. cloacae 34654) [µg/mL] | MIC strain 19 (E. coli J62-TEM-3 + 4 μg/mL clavulanic acid) (Bacteria) | MIC strain 20 (E. coli J62-TEM-3 + 4 μg/mL sulbactam) (Bacteria) | MIC strain 21 (E. coli J62-TEM-3 + 4 μg/mL tazobactam) (Bacteria) [µg/mL] | MIC (K. pneumoniae 60) [µg/mL] | MIC (B. fragilis 6688) [µg/mL] | MIC (E. coli J62-TEM-3) [µg/mL] | MIC (E. coli ATCC25922) [µg/mL] | MIC (S. maltophilia ICB7569) [µg/mL] | MIC (C. perfringens DSM756) [µg/mL] | MIC (C. freundii K21/3034) [µg/mL] | MIC (P. aeruginosa PAO1) [µg/mL] | MIC (S. pneumoniae 113) [µg/mL] | MIC (S. aureus 133; [3]) [µg/mL] | MIC [2] [µg/mL] | other results
1 | CC1(C)[C@H](NC(=O)/C(=N\OCCOc2ccc(C3=NCC(N)CN3)cc2)c2csc(N)n2)C(=O)N1OS(=O)(=O)O (stereo partly drawn) [Example 86, (2Z)-2-({2-[4-(5-Amino-1,4,5,6-tetrahydropyrimidin-2-yl)phenoxy]ethoxy}imino)-2-(2-amino-1,3-thiazol-4-yl)-N-[(3S)-2,2-dimethyl-4-oxo-1-(sulfooxy)azetidin-3-yl]ethanamide] | 8 (≈ 13.4 µM) | 2 (≈ 3.35 µM) | ≤ 0.063 | 0.25 (≈ 0.419 µM) | 0.5 (≈ 0.838 µM) | 0.5 (≈ 0.838 µM) | 0.25 µg/mL | 0.25 µg/mL | 0.5 | 0.5 (≈ 0.838 µM) | 4 (≈ 6.7 µM) | 16 (≈ 26.8 µM) | 0.25 (≈ 0.419 µM) | 32 (≈ 53.6 µM) | 2 (≈ 3.35 µM) | 0.25 (≈ 0.419 µM) | 4 (≈ 6.7 µM) | ≤ 0.063 | ≤ 0.063 | 8 (≈ 13.4 µM) | MIC (S. aureus 133; [4]): 4 µg/mL (≈ 6.7 µM)
2 | CC1(C)[C@H](NC(=O)/C(=N\O[C@@H](COc2ccc(C(=N)NC3CCNCC3)cc2)C(=O)O)c2csc(N)n2)C(=O)N1OS(=O)(=O)O [Example 108, (2S)-2-({[(1Z)-1-(2-Amino-1,3-thiazol-4-yl)-2-{[(3S)-2,2-dimethyl-4-oxo-1-(sulfooxy)-azetidin-3-yl]amino}-2-oxoethylidene]amino}oxy)-3-{4-[N-(piperidin-4-yl)carbamimidoyl]phenoxy}propanoic acid] | 1 (≈ 1.5 µM) | 1 (≈ 1.5 µM) | ≤ 0.063 | 0.125 (≈ 0.187 µM) | ≤ 0.063 | 0.125 (≈ 0.187 µM) | ≦0.063 mg/L | ≦0.063 mg/L | 0.125 | 0.125 (≈ 0.187 µM) | 8 (≈ 12 µM) | 4 (≈ 5.98 µM) | 0.125 (≈ 0.187 µM) | 4 (≈ 5.98 µM) | 1 (≈ 1.5 µM) | ≤ 0.063 | 0.5 (≈ 0.748 µM) | 0.5 (≈ 0.748 µM) | ≤ 0.063 | 1 (≈ 1.5 µM) | MIC (S. aureus 133; [4]): 32 µg/mL (≈ 47.9 µM)
3 | CC1(C)[C@H](NC(=O)/C(=N\OCCOc2ccc(C(=N)NCCNC(=N)N)cc2)c2csc(N)n2)C(=O)N1OS(=O)(=O)O [Example 78, (2Z)-2-(2-Amino-1,3-thiazol-4-yl)-2-[(2-{4-[N-(2-carbamimidamidoethyl)carbamimidoyl]phenoxy}ethoxy)imino]-N-[(3S)-2,2-dimethyl-4-oxo-1-(sulfooxy)azetidin-3-yl]ethanamide] | 4 (≈ 6.38 µM) | 0.25 (≈ 0.399 µM) | ≤ 0.063 | 0.5 (≈ 0.798 µM) | 0.5 (≈ 0.798 µM) | 0.5 (≈ 0.798 µM) | 0.25 µg/mL | 0.5 µg/mL | 0.5 | 0.25 (≈ 0.399 µM) | 4 (≈ 6.38 µM) | 4 (≈ 6.38 µM) | 0.25 (≈ 0.399 µM) | 8 (≈ 12.8 µM) | 2 (≈ 3.19 µM) | 0.25 (≈ 0.399 µM) | 4 (≈ 6.38 µM) | ≤ 0.063 | ≤ 0.063 | 2 (≈ 3.19 µM) | MIC (S. aureus 133; [4]): 1 µg/mL (≈ 1.6 µM)
4 | CC1(C)[C@H](NC(=O)/C(=N\OCCOc2ccc(C(=N)NCc3ccccn3)cc2)c2csc(N)n2)C(=O)N1OS(=O)(=O)O [Example 76, (2Z)-2-(2-Amino-1,3-thiazol-4-yl)-N-[(3S)-2,2-dimethyl-4-oxo-1-(sulfooxy)azetidin-3-yl]-2-[(2-{4-[N-(pyridin-2-ylmethyl)carbamimidoyl]phenoxy}ethoxy)imino]ethanamide] | 16 (≈ 25.3 µM) | 4 (≈ 6.32 µM) | 0.25 (≈ 0.395 µM) | 0.5 (≈ 0.79 µM) | 1 (≈ 1.58 µM) | 1 (≈ 1.58 µM) | 0.5 µg/mL | 0.5 µg/mL | 0.5 | 0.5 (≈ 0.79 µM) | 4 (≈ 6.32 µM) | 8 (≈ 12.6 µM) | 0.5 (≈ 0.79 µM) | 16 (≈ 25.3 µM) | 2 (≈ 3.16 µM) | 0.5 (≈ 0.79 µM) | 16 (≈ 25.3 µM) | ≤ 0.063 | ≤ 0.063 | 32 (≈ 50.6 µM) | MIC (S. aureus 133; [4]): 4 µg/mL (≈ 6.32 µM)
5 | CN1CC(NC(=N)c2ccc(OC[C@H](O/N=C(\C(=O)N[C@@H]3C(=O)N(OS(=O)(=O)O)C3(C)C)c3csc(N)n3)C(=O)O)cc2)C1 [Example 109] | 2 (≈ 3.05 µM) | 2 (≈ 3.05 µM) | ≤ 0.063 | 0.125 (≈ 0.191 µM) | 0.125 (≈ 0.191 µM) | 0.125 (≈ 0.191 µM) | ≦0.063 mg/L | 0.25 µg/mL | 0.125 | 0.125 (≈ 0.191 µM) | 16 (≈ 24.4 µM) | 2 (≈ 3.05 µM) | 0.125 (≈ 0.191 µM) | 8 (≈ 12.2 µM) | 4 (≈ 6.11 µM) | 0.125 (≈ 0.191 µM) | 2 (≈ 3.05 µM) | 0.5 (≈ 0.764 µM) | ≤ 0.063 | 2 (≈ 3.05 µM) | 
6 | CC1(C)[C@H](NC(=O)/C(=N\O[C@@H](COc2ccc(C(=N)NC3CNCC3N)cc2)C(=O)O)c2csc(N)n2)C(=O)N1OS(=O)(=O)O (stereo partly drawn) [Example 106, (2S)-3-{4-[N-(4-Aminopyrrolidin-3-yl)carbamimidoyl]phenoxy}-2-({[(1Z)-1-(2-amino-1,3-thiazol-4-yl)-2-{[(3S)-2,2-dimethyl-4-oxo-1-(sulfooxy)azetidin-3-yl]amino}-2-oxoethylidene]amino}oxy)propanoic acid] | 2 (≈ 2.99 µM) | 2 (≈ 2.99 µM) | ≤ 0.063 | 0.125 (≈ 0.187 µM) | ≤ 0.063 | 0.125 (≈ 0.187 µM) | 0.125 µg/mL | ≦0.063 mg/L | 0.125 | 0.125 (≈ 0.187 µM) | 8 (≈ 11.9 µM) | 8 (≈ 11.9 µM) | 0.125 (≈ 0.187 µM) | 4 (≈ 5.97 µM) | 1 (≈ 1.49 µM) | 0.125 (≈ 0.187 µM) | 1 (≈ 1.49 µM) | 0.5 (≈ 0.747 µM) | ≤ 0.063 | 1 (≈ 1.49 µM) | 
